# Measured values published in the supplement of paper PMC11061612.
# Key:
# Test in all cases: Bliss excess, mean over the matrix (fraction); higher = more synergy
# [1] = system: MDA-MB-157 (Breast Carcinoma)
# Summary of the method: (§1)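 Bliss excess equals the observed combination effect minus the expected value EA + EB − EA·EB, where EA and EB are the effects of each agent alone. Combination Emax is the second-highest inhibition within the matrix. Inhibition was scaled from CellTiter-Glo 2.0 luminescence, with 0 set by vehicle wells and 1 by blank wells, after 72 hours of two-drug dosing of cells plated in 1536-well plates.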
# IGR-1 (Melanoma) = system: IGR-1 (Melanoma)
# Summary of the method: as §1
# [2] = system: C3A (Hepatocellular Carcinoma)
# Summary of the method: as §1
# [3] = system: G-292-Clone-A141B1 (Osteosarcoma)
# Summary of the method: as §1
# [4] = system: KM-H2 (Hodgkin's Lymphoma)
# Summary of the method: as §1
# [5] = system: JiyoyeP-2003 (Burkitt's Lymphoma)
# Summary of the method: as §1
# SN12C (Kidney Carcinoma) = system: SN12C (Kidney Carcinoma)
# Summary of the method: as §1
# [6] = system: MDA-MB-231 (Breast Carcinoma)
# Summary of the method: as §1
# CAL-78 (Chondrosarcoma) = system: CAL-78 (Chondrosarcoma)
# Summary of the method: as §1
# [7] = system: EM-2 (Chronic Myelogenous Leukemia)
# Summary of the method: as §1
# [8] = system: CFPAC-1 (Pancreatic Carcinoma)
# Summary of the method: as §1
# [9] = system: NCI-H1793 (Lung Adenocarcinoma)
# Summary of the method: as §1
# [10] = system: NALM-6 (B-Lymphoblastic Leukemia)
# Summary of the method: as §1
# [11] = system: HPAC (Pancreatic Carcinoma)
# Summary of the method: as §1
# [12] = system: 697 (B-Lymphoblastic Leukemia)
# Summary of the method: as §1
# [13] = system: MFH-ino (Other Solid Carcinomas)
# Summary of the method: as §1
# [14] = system: KARPAS-620 (Plasma Cell Myeloma)
# Summary of the method: as §1
# [15] = system: SNU-C5 (Colorectal Carcinoma)
# Summary of the method: as §1
# [16] = system: SW780 (Bladder Carcinoma)
# Summary of the method: as §1
# [17] = system: KATOIII (Gastric Carcinoma)
# Summary of the method: as §1
Structure (SMILES),Bliss excess [1],Bliss excess (IGR-1 (Melanoma)),Bliss excess [2],Bliss excess [3],Bliss excess [4],Bliss excess [5],Bliss excess (SN12C (Kidney Carcinoma)),Bliss excess [6],Bliss excess (CAL-78 (Chondrosarcoma)),Bliss excess [7],Bliss excess [8],Bliss excess [9],Bliss excess [10],Bliss excess [11],Bliss excess [12],Bliss excess [13],Bliss excess [14],Bliss excess [15],Bliss excess [16],Bliss excess [17]
"Cc1c2c(nn1C)CSCc1cc(n(C)n1)CSc1cc(c3ccccc3c1)OCCCc1c(C(=O)O)n(C)c3c-2c(Cl)ccc13 [AZD5991] + C1CN(CCC1(C(=O)N[C@@H](CCO)C2=CC=C(C=C2)Cl)N)C3=NC=NC4=C3C=CN4 [Capivasertib] (first compound max 1 µM, 7x7, partner max 3 µM)",0.0573,0.0228,-0.0318,-0.0115,-0.0052,0.0371,-0.0239,-0.0495,0.0091,-0.0149,0.0021,0.0258,0.0149,-0.0239,-0.034,-0.0372,-0.0097,0.0007,-0.011,-0.0267
"CN(C)CCCOc1ccc(-c2ccc3ncc4c(c3c2)n(C2CCOCC2)c(=O)n4C)cn1 [AZD0156] + C[C@@H]1COCCN1C2=NC(=NC(=C2)C3(CC3)[S@](=N)(=O)C)C4=C5C=CNC5=NC=C4 [AZD6738] (first compound max 1 µM, 7x7, partner max 10 µM)",-0.0103,-0.0032,0.0318,-0.0091,0.0658,0.0501,-0.0795,0.0105,-0.0694,0.0124,-0.0137,-0.0268,-0.0082,0.067,0.0085,-0.0591,0.0058,0.0298,-0.0372,-0.0207
"NC1(C(=O)N[C@@H](CCO)c2ccc(Cl)cc2)CCN(c2ncnc3[nH]ccc23)CC1 [Capivasertib] + C[C@@H]1COCCN1C2=NC(=NC(=C2)C3(CC3)[S@](=N)(=O)C)C4=C5C=CNC5=NC=C4 [AZD6738] (first compound max 10 µM, 7x7, partner max 10 µM)",-0.0365,-0.0227,-0.0096,-0.0276,-0.0181,-0.0698,-0.0044,-0.0598,-0.0695,-0.0512,-0.0224,0.0097,-0.0686,-0.0425,-0.0173,-0.086,-0.0384,-0.0645,-0.0216,-0.0941
"COc1nnc2ccc(N3CCC(c4ccc(OCCN5CCN(C)C(=O)[C@H]5C)cc4)CC3)nn12 [AZD5153] + C=CCn1c(=O)c2cnc(Nc3ccc(N4CCN(C)CC4)cc3)nc2n1-c1cccc(C(C)(C)O)n1 [AZD1775] (first compound max 1 µM, partner max 1 µM)",-0.0313,0.0203,0.0547,-0.0475,-0.101,-0.0401,-0.128,-0.0768,-0.0766,-0.0217,-0.119,-0.0548,-0.0559,-0.111,-0.0478,-0.0837,-0.0559,-0.0291,-0.0163,-0.148
"C=CCn1c(=O)c2cnc(Nc3ccc(N4CCN(C)CC4)cc3)nc2n1-c1cccc(C(C)(C)O)n1 [AZD1775] + O=C(c1cc(Cc2n[nH]c(=O)c3ccccc23)ccc1F)N1CCN(C(=O)C2CC2)CC1 [Olaparib] (first compound max 1 µM, partner max 10 µM)",-0.0379,0.0054,-0.0179,0.0161,0.0084,-0.0086,-0.0136,-0.0267,-0.0833,-0.0243,-0.0585,-0.0145,-0.0045,0.0077,0.0782,-0.0128,-0.0324,-0.0485,-0.0262,-0.0227
"CC(=O)Nc1cccc(-n2c(=O)n(C3CC3)c(=O)c3c(Nc4ccc(I)cc4F)n(C)c(=O)c(C)c32)c1 [Trametinib] + Cc1nc(-c2cn3c(n2)-c2ccc(-c4cnn(C(C)(C)C(N)=O)c4)cc2OCC3)n(C(C)C)n1 [Taselisib] (first compound max 1 µM, 7x7, partner max 10 µM)",0.0963,0.15,0.147,0.0804,0.0338,0.108,0.0395,0.142,0.0728,0.319,0.148,0.0519,-0.0228,0.0762,0.117,0.148,0.24,0.0951,0.129,0.0938
"C[C@@H]1COCCN1c1cc(C2([S@](C)(=N)=O)CC2)nc(-c2ccnc3[nH]ccc23)n1 [AZD6738] + O=C(c1cc(Cc2n[nH]c(=O)c3ccccc23)ccc1F)N1CCN(C(=O)C2CC2)CC1 [Olaparib] (first compound max 10 µM, 7x7, partner max 10 µM)",-0.0453,0.0059,-0.0039,0.0195,0.024,0.0005,-0.0284,-0.0335,0.0285,0.0026,-0.0069,-0.0153,0.0015,0.0125,0.0073,0.0189,-0.0168,-0.0258,-0.0047,-0.0286
